Patent publication EP0530343B1, “WATER SOLUBLE, NON-IONIC X-RAY CONTRASTING AGENTS AND PROCESS FOR PRODUCING THE SAME” (Dr. Franz Köhler Chemie GmbH, priority 1991, dated 1992)

Assays:
Solubility = type: physicochemical; details: read-out: Löslichkeit
[1] = Osmolality of aqueous solutions; type: physicochemical; details: Lösungen in Wasser mit 300 mg I/ml bei 37°C
Procedure: (§1) Die Osmolalität und Viskosität beziehen sich auf Lösungen in Wasser mit 300 mg I/ml bei 37°C.

[2] = Viscosity of aqueous solutions; type: physicochemical; details: Lösungen in Wasser mit 300 mg I/ml bei 37°C
Procedure: as §1

[3] = bei 300 mg I/ml; commercial contrast agents; cited from earlier work

SMILES | solubility (Solubility) [mg/mL] | Osmolalität [1] [mOsmol/kg] | Viskosität [2] | Osmolalitäten [3] [mOsmol/kg]
CC(=O)N(CCCC(O)CO)c1c(I)c(C(=O)N(C)C)c(I)c(N(CCCC(O)CO)C(C)=O)c1I (stereo not shown) [IX, 3,5-Bis(N-(4,5-dihydroxypentyl)-acetamido)-2,4,6-triiodbenzoesäure-N,N-dimethylamid] | > 1000 | 500 | 6,3 cps | 
CC(=O)Nc1c(I)c(C(=O)N[C@H]2C(O)O[C@H](CO)[C@@H](O)[C@@H]2O)c(I)c(N(C)C(C)=O)c1I (stereo partly shown) [Metrizamid] |  |  |  | 485
CNC(=O)c1c(I)c(N(CCC(O)CO)C(C)=O)c(I)c(N(CCC(O)CO)C(C)=O)c1I (stereo not shown) [VI, 3,5-Bis(N-(3,4-dihydroxybutyl)-acetamido)-2,4,6-triiodbenzoesäure-N-methylamid] | > 1000 | 545 | 5,3 cps | 
CC(=O)N(CCC(O)CO)c1c(I)c(C(=O)N(C)C)c(I)c(N(CCC(O)CO)C(C)=O)c1I (stereo not shown) [VII, 3,5-Bis(N-(3,4-dihydroxybutyl)-acetamido)-2,4,6-triiodbenzoesäure-N,N-dimethylamid] | > 1000 | 535 | 4,5 cps | 
CNC(=O)c1c(I)c(N(CCCC(O)CO)C(C)=O)c(I)c(N(CCCC(O)CO)C(C)=O)c1I (stereo not shown) [VIII, 3,5-Bis(N-(4,5-dihydroxypentyl)-acetamido)-2,4,6-tri iodbenzoesäure-N-methylamid] | > 1000 | 330 | 7,5 cps | 
CNC(=O)c1c(I)c(C(=O)NCC(O)CO)c(I)c(N(CCCC(O)CO)C(C)=O)c1I (stereo not shown) [XIX, 5-(N-(4,5-dihydroxypentyl)-acetamido)-2,4,6-triiod-N-methyl-N'-(2,3-dihydroxypropyl)-isophthaldiamid] | > 1000 | 405 | 5,8 cps | 
CC(=O)N(CCC(O)CO)c1c(I)c(C(=O)N(C)CCN(C)C(=O)c2c(I)c(N(CCC(O)CO)C(C)=O)c(I)c(N(CCC(O)CO)C(C)=O)c2I)c(I)c(N(CCC(O)CO)C(C)=O)c1I (stereo not shown) [XV] | > 1000 | 255 | 16,5 cps | 
